Consider 4 compounds from ChEMBL document CHEMBL1124077, “Photoaffinity labeling adenosine A1 receptors with an antagonist 125I-labeled aryl azide derivative of 8-phenylxanthine” (J Med Chem, 1988).

For assay [1], the target named is T1, Adenosine receptor A1 (Rattus norvegicus, UniProt P25099).
T1 sequence (P25099 whole entry): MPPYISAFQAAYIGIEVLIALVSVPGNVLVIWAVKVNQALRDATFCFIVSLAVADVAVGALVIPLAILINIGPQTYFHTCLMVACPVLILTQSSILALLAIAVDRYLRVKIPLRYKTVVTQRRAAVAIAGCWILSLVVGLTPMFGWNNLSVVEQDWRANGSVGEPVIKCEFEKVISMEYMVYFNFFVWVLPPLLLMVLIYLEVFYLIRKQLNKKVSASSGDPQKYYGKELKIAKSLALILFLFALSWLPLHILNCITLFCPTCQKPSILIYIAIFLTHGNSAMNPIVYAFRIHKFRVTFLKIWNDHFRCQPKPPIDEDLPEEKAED
As to the kind of experiment: Inhibition of photolabeling of 34 kDa polypeptide in adenosine A1 receptor.

The target in assay [2] is T2, Adenosine receptor A1 (Rattus norvegicus) (UniProt P25099).
T2 sequence (whole entry): T1 sequence (P25099 whole entry)
As to the kind of experiment: Bmax value against A1 receptor.

Assay [3] has as its target T1, Adenosine receptor A1. As to the kind of experiment: Binding affinity towards adenosine A1 receptor in rat brain membrane(KD). The format is tissue-based.

One may read the IC50 as the midpoint of a concentration-inhibition curve. A word on the Kd: it is the equilibrium constant for the complex coming apart. Low values mean tighter binding, high ones weaker binding.

For `CCCn1c(=O)c2nc(-c3ccc(OCC(=O)O)cc3)[nH]c2n(CCc2ccc(N)cc2)c1=O`, the IC50 against Adenosine receptor A1 [1] was found to be 16 nM.
`CCCn1c(=O)c2nc(-c3ccc(OCC(=O)O)cc3)[nH]c2n(CCc2ccc(N)c(I)c2)c1=O`: the Bmax in assay [2] was found to be 485 fmol/mg. The Kd on Adenosine receptor A1 [3] is 0.8 nM.
`CCCn1c(=O)c2nc(-c3ccc(OCC(=O)O)cc3)[nH]c2n(CCc2ccc(N=[N+]=[N-])c(I)c2)c1=O`: on Adenosine receptor A1 [3], the Kd was 1.2 nM.
Turning to `CCCn1c(=O)c2nc(-c3ccc(OCC(=O)O)cc3)[nH]c2n(Cc2ccc(N)c(I)c2)c1=O`, the Bmax in assay [2] came out at 485 fmol/mg. Moreover, at Adenosine receptor A1 [3], binding was characterised by a dissociation constant (Kd) of 0.8 nM.
